Data taken from PMC9037210, “Novel 3-(6-methylpyridin-2-yl)coumarin-based chalcones as selective inhibitors of cancer-related carbonic anhydrases IX and XII endowed with anti-proliferative activity” (Journal of Enzyme Inhibition and Medicinal Chemistry, 2022).

Experiments:
RXF 393 = test: NCI single (10 µM) dose SRB screening, RXF 393; assay type: cell-based, human; details: 10 µM single dose, RXF 393, Renal cancer
Description: (§1) Following NCI protocol, sixteen MPCs were screened for their potential in vitro anticancer effects against human 59 cancer cell panels including prostate, leukaemia melanoma, colon, breast, CNS, renal, NSCLC, and ovarian cancers by National Cancer Institute (USA)[30].
(§2) The antiproliferative activities of MPC 3 and MPCs 5a–o were first evaluated in a 10 µM dose assay, with SRB assay used to determine cell survival and proliferation. […] The results of the cell growth inhibitory activities for MPCs 5g and 5l towards the different treated tumour cell lines were presented as GI% and presented in Table 3.
(§3) The anticancer test was conducted using the methods of the Drug Evaluation Branch, National Cancer Institute, Bethesda, MD, using 59 human tumour cell lines derived from nine human tissues. The GI50, TGI, and LC50 dose-response parameters were calculated for each medication.

CAKI-1 = test: NCI single (10 µM) dose SRB screening, CAKI-1; assay type: cell-based, human; details: 10 µM single dose, CAKI-1, Renal cancer
Description: as §1, §2, §3

SK-MEL-28 = test: NCI single (10 µM) dose SRB screening, SK-MEL-28; assay type: cell-based, human; details: 10 µM single dose, SK-MEL-28, Melanoma
Description: as §1, §2, §3

NCI-H460 = test: NCI single (10 µM) dose SRB screening, NCI-H460; assay type: cell-based, human; details: 10 µM single dose, NCI-H460, NSC lung cancer
Description: as §1, §2, §3

HT29 = test: NCI single (10 µM) dose SRB screening, HT29; assay type: cell-based, human; details: 10 µM single dose, HT29, Colon cancer
Description: as §1, §2, §3

UO-31 = test: NCI single (10 µM) dose SRB screening, UO-31; assay type: cell-based, human; details: 10 µM single dose, UO-31, Renal cancer
Description: as §1, §2, §3

NCI-H23 = test: NCI single (10 µM) dose SRB screening, NCI-H23; assay type: cell-based, human; details: 10 µM single dose, NCI-H23, NSC lung cancer
Description: as §1, §2, §3

SF-268 = test: NCI single (10 µM) dose SRB screening, SF-268; assay type: cell-based, human; details: 10 µM single dose, SF-268, CNS cancer
Description: as §1, §2, §3

K-562 = test: NCI single (10 µM) dose SRB screening, K-562; assay type: cell-based, human; details: 10 µM single dose, K-562, Leukaemia
Description: as §1, §2, §3

A498 = test: NCI single (10 µM) dose SRB screening, A498; assay type: cell-based, human; details: 10 µM single dose, A498, Renal cancer
Description: as §1, §2, §3

ACHN = test: NCI single (10 µM) dose SRB screening, ACHN; assay type: cell-based, human; details: 10 µM single dose, Renal cancer
Description: as §1, §2, §3

SNB-75 = test: NCI single (10 µM) dose SRB screening, SNB-75; assay type: cell-based, human; details: 10 µM single dose, SNB-75, CNS cancer
Description: as §1, §2, §3

hCA I = target: T1, hCA I (Homo sapiens, UniProt P00915); test: stopped-flow CO2 hydrase assay, hCA I; assay type: biochemical; details: stopped-flow, incubation time of 6 h, mean of three assays; read-out: KI CA I
T1 construct: made in house
T1 sequence (P00915 whole entry): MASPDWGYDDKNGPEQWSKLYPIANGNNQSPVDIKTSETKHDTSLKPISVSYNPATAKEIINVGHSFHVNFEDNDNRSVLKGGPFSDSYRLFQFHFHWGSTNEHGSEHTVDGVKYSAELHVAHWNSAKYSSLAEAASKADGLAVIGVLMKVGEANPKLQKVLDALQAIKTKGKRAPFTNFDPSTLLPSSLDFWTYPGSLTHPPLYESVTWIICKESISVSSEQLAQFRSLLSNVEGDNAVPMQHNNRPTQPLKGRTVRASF
Description: The newly synthesised MPCs (3 and 5a–o) were assessed for their CA inhibition activity employing the stopped-flow CO2 hydrase assay[29] for constitutional hCA (I/II) isoforms and cancer-linked hCA (IX/XII) isoforms.
The CA inhibition activity for the herein reported MPC derivatives was evaluated against the hCA isoforms I, II, IX, and XII using stopped-flow CO2 hydrase test[7]^,[33–36] (see the Supplementary Material).
Carbonic anhydrase inhibition assay
The carbonic anhydrase catalyzed CO2 hydration actions for all coumarin-based […]
Photophysics stopped-flow. The enzymes are recombinant proteins prepared in our lab. Phenol red (at a concentration of 0.2 mM) has been used as indicator, working at […]
mM Na2SO4 (for maintaining constant the ionic strength), following the initial rates of the CA-catalyzed CO2 hydration reaction for a period of 10-100 s. The CO2 concentrations ranged from 1.7 to 17 mM for the determination of the kinetic parameters and inhibition constants. For each inhibitor at least six traces of the initial 5-10% of the reaction have been used for determining the initial velocity. The uncatalyzed rates were determined in the same manner and subtracted from the total observed rates. Stock solutions of inhibitor (0.1 mM) were prepared in distilled-deionized water and dilutions up to 0.01 nM were done thereafter with the assay buffer. Inhibitor and enzyme solutions were preincubated together for 6 hrs. at room temperature prior to assay, in order to allow for the formation of the E-I complex. The inhibition constants were obtained by non-linear least-squares methods using PRISM 3 and the Cheng-Prusoff equation, and represent the mean from at least three different

MDA-MB-231 = test: NCI single (10 µM) dose SRB screening, MDA-MB-231; assay type: cell-based, human; details: 10 µM single dose, MDA-MB-231, Breast cancer
Description: as §1, §2, §3

UACC-257 = test: NCI single (10 µM) dose SRB screening, UACC-257; assay type: cell-based, human; details: 10 µM single dose, UACC-257, Melanoma
Description: as §1, §2, §3

HCC-2998 = test: NCI single (10 µM) dose SRB screening, HCC-2998; assay type: cell-based, human; details: 10 µM single dose, HCC-2998, Colon cancer
Description: as §1, §2, §3

MCF7 = test: NCI single (10 µM) dose SRB screening, MCF7; assay type: cell-based, human; details: 10 µM single dose, MCF7, Breast cancer
Description: as §1, §2, §3

OVCAR-4 = test: NCI single (10 µM) dose SRB screening, OVCAR-4; assay type: cell-based, human; details: 10 µM single dose, OVCAR-4, Ovarian cancer
Description: as §1, §2, §3

BT-549 = test: NCI single (10 µM) dose SRB screening, BT-549; assay type: cell-based, human; details: 10 µM single dose, BT-549, Breast cancer
Description: as §1, §2, §3

786-0 = test: NCI single (10 µM) dose SRB screening, 786-0; assay type: cell-based, human; details: 10 µM single dose, 786-0, Renal cancer
Description: as §1, §2, §3

SK-MEL-5 = test: NCI single (10 µM) dose SRB screening, SK-MEL-5; assay type: cell-based, human; details: 10 µM single dose, SK-MEL-5, Melanoma
Description: as §1, §2, §3

OVCAR-3 = test: NCI single (10 µM) dose SRB screening, OVCAR-3; assay type: cell-based, human; details: 10 µM single dose, OVCAR-3, Ovarian cancer
Description: as §1, §2, §3

MDA-MB-435 = test: NCI single (10 µM) dose SRB screening, MDA-MB-435; assay type: cell-based, human; details: 10 µM single dose, MDA-MB-435, Melanoma
Description: as §1, §2, §3

HOP-62 = test: NCI single (10 µM) dose SRB screening, HOP-62; assay type: cell-based, human; details: 10 µM single dose, HOP-62, NSC lung cancer
Description: as §1, §2, §3

SR = test: NCI single (10 µM) dose SRB screening, SR; assay type: cell-based, human; details: 10 µM single dose, Leukaemia
Description: as §1, §2, §3

SK-OV-3 = test: NCI single (10 µM) dose SRB screening, SK-OV-3; assay type: cell-based, human; details: 10 µM single dose, SK-OV-3, Ovarian cancer
Description: as §1, §2, §3

NCI-H522 = test: NCI single (10 µM) dose SRB screening, NCI-H522; assay type: cell-based, human; details: 10 µM single dose, NCI-H522, NSC lung cancer
Description: as §1, §2, §3

Structure (SMILES): Cc1nc(-c2cc3ccccc3oc2=O)ccc1C(=O)/C=C/c1ccc(N2CCOCC2)cc1 [Compound 5g, 3-(6-Methyl-5-[(2E)-3-[4-(morpholin-4-yl)phenyl]prop-2-enoyl]pyridin-2-yl)-2H-chromen-2-one]
- GI % (RXF 393): – (Only GI % more than 20% are displayed.)
- GI % (CAKI-1): 34%
- GI % (SK-MEL-28): 27%
- GI % (NCI-H460): – (Only GI % more than 20% are displayed.)
- GI % (HT29): – (Only GI % more than 20% are displayed.)
- GI % (UO-31): – (Only GI % more than 20% are displayed.)
- GI % (NCI-H23): – (Only GI % more than 20% are displayed.)
- GI % (SF-268): 24%
- GI % (K-562): 62%
- GI % (A498): 24%
- GI % (ACHN): 29%
- GI % (SNB-75): 41%
- Ki (hCA I): > 100 µM
- GI % (MDA-MB-231): 45%
- GI % (UACC-257): – (Only GI % more than 20% are displayed.)
- GI % (HCC-2998): – (Only GI % more than 20% are displayed.)
- GI % (MCF7): 48%
- GI % (OVCAR-4): 27%
- GI % (BT-549): 23%
- GI % (786-0): 24%
- GI % (SK-MEL-5): 28%
- GI % (OVCAR-3): – (Only GI % more than 20% are displayed.)
- GI % (MDA-MB-435): 121%
- GI % (HOP-62): – (Only GI % more than 20% are displayed.)
- GI % (SR): 73%
- GI % (SK-OV-3): – (Only GI % more than 20% are displayed.)
- GI % (NCI-H522): 38%

Structure (SMILES): Cc1nc(-c2cc3ccccc3oc2=O)ccc1C(=O)/C=C/c1ccccn1 [Compound 5l, 3-(6-Methyl-5-[(2E)-3-(pyridin-2-yl)prop-2-enoyl]pyridin-2-yl)-2H-chromen-2-one]
- GI % (RXF 393): 67%
- GI % (CAKI-1): 39%
- GI % (SK-MEL-28): – (Only GI % more than 20% are displayed.)
- GI % (NCI-H460): 58%
- GI % (HT29): 97%
- GI % (UO-31): 41%
- GI % (NCI-H23): 44%
- GI % (SF-268): 21%
- GI % (K-562): 92%
- GI % (A498): – (Only GI % more than 20% are displayed.)
- GI % (ACHN): 41%
- GI % (SNB-75): 43%
- Ki (hCA I): > 100 µM
- GI % (MDA-MB-231): 87%
- GI % (UACC-257): – (Only GI % more than 20% are displayed.)
- GI % (HCC-2998): 33%
- GI % (MCF7): 91%
- GI % (OVCAR-4): – (Only GI % more than 20% are displayed.)
- GI % (BT-549): – (Only GI % more than 20% are displayed.)
- GI % (786-0): 93%
- GI % (SK-MEL-5): – (Only GI % more than 20% are displayed.)
- GI % (OVCAR-3): 53%
- GI % (MDA-MB-435): 29%
- GI % (HOP-62): – (Only GI % more than 20% are displayed.)
- GI % (SR): 112%
- GI % (SK-OV-3): – (Only GI % more than 20% are displayed.)
- GI % (NCI-H522): 41%
